Bridge positions count the residues as written; N and C are the ends. Square brackets hold non-standard residues; d marks the D form. Peptide text beside a SMILES is read from it. S5 = C=CCCC[C@](C)(N)C(=O)O; Nle = CCCC[C@H](N)C(=O)O
Tests used:
[1] = system: E. coli; assay type: cell-based, Escherichia coli
Procedure: (§1) Antimicrobial Activity Assay:
(§2) The following microbroth dilution protocol was adapted to determine the minimum inhibitory concentration (MIC) of each peptide. First, Mueller-Hinton broth (MHB) was passed through an anion exchange column to remove polyanionic species and generate refined MHB. […] Briefly, bacterial cells was grown overnight in refined MHB at 37° C. and then diluted and allowed to grow again for several hours. Serial dilutions of peptide stocks in water (10 μl) were prepared using clear round-bottom polypropylene 96-well plates. Then 90 μl of bacteria in refined MHB was added to give a final inoculum of 5×10^5 CFU/ml. The plates were then covered with porous tape to reduce evaporation, and incubated for 20-24 hours at 37° C. The MIC is the minimum peptide concentration at which no visible growth was observed.

[2] = system: B. cereus; assay type: cell-based, Bacillus cereus
Procedure: as §1, §2

[3] = system: S. aureus; assay type: cell-based, Staphylococcus aureus
Procedure: as §1, §2

[4] = system: P. aeruginosa; assay type: cell-based, Pseudomonas aeruginosa
Procedure: as §1, §2

[5] = system: human red blood cells; assay type: cell-based; conditions: red cells of human, 1 h, 25
Procedure: FIG. 5 is a series of line graphs depicting the hemolytic activity of magainin II and stapled analogues. Peptides were incubated with 1% (v/v) human red blood cells in phosphate-buffered solution for 1 hour at 37° C. and then the supernatant was isolated and the amount of hemoglobin released was measured at 540 nm. % hemolysis was calculated relative to an untreated control.
Hemolytic Activity Assay:
For the determination of hemolytic activity, human blood samples were centrifuged to isolate red blood cells (RBCs), which are then washed and suspended in phosphate-buffered saline to yield a 1% (v/v) suspension. The suspension was then added to serial dilutions of peptide stocks in water in clear round-bottom polypropylene 96-well plates and the plates were incubated for 1 hour at 37° C. After incubation, the plates were centrifuged and the supernatant was isolated to determine the amount of hemoglobin released using a spectrophotometer (570 nm), according to the equation: % Hemolysis=(Treated Absorbance−Untreated Control Absorbance)/(1% Triton-X100 Treated Absorbance−Untreated Control Absorbance). The minimum hemolytic concentration (MHC) is the peptide concentration at which there is less than 1% hemoglobin release.

SMILES: CCCC[C@H](NC(=O)[C@@H](NC(=O)[C@H](CCC(=O)O)NC(=O)CNC(=O)[C@@H](NC(=O)[C@H](Cc1ccccc1)NC(=O)[C@H](C)NC(=O)[C@]1(C)CCCC=CCCC[C@](C)(NC(=O)[C@H](C)NC(=O)[C@H](CO)NC(=O)[C@H](Cc2c[nH]cn2)NC(=O)[C@H](CC(C)C)NC(=O)[C@H](Cc2ccccc2)NC(=O)[C@H](CCCCN)NC(=O)CNC(=O)[C@@H](NC(=O)CN)[C@@H](C)CC)C(=O)N[C@@H](CCCCN)C(=O)N[C@@H](Cc2ccccc2)C(=O)NCC(=O)N1)C(C)C)[C@@H](C)CC)C(=O)N[C@@H](CC(N)=O)C(=O)N[C@@H](CO)C(N)=O [Mag(i + 4)9] (H-GIGKFLHSA[S5]KFG[S5]AFVGEI[Nle]NS-NH2; staple 10-14)
- MIC E. coli [1]: 6.2 µg/mL
- MIC B. cereus [2]: 12.5 µg/mL
- MIC S. aureus [3]: >50 µg/mL
- MIC P. aeruginosa [4]: >50 µg/mL
- % Hemolysis at 25 μg/ml [5]: 66.9%

SMILES: CCCC[C@H](NC(=O)[C@@H](NC(=O)[C@H](CCC(=O)O)NC(=O)CNC(=O)[C@@H](NC(=O)[C@H](Cc1ccccc1)NC(=O)[C@]1(C)CCCC=CCCC[C@](C)(NC(=O)[C@H](CCCCN)NC(=O)[C@H](C)NC(=O)[C@H](CO)NC(=O)[C@H](Cc2c[nH]cn2)NC(=O)[C@H](CC(C)C)NC(=O)[C@H](Cc2ccccc2)NC(=O)[C@H](CCCCN)NC(=O)CNC(=O)[C@@H](NC(=O)CN)[C@@H](C)CC)C(=O)N[C@@H](Cc2ccccc2)C(=O)NCC(=O)N[C@@H](CCCCN)C(=O)N1)C(C)C)[C@@H](C)CC)C(=O)N[C@@H](CC(N)=O)C(=O)N[C@@H](CO)C(N)=O [Mag(i + 4)10] (H-GIGKFLHSAK[S5]FGK[S5]FVGEI[Nle]NS-NH2; staple 11-15)
- MIC E. coli [1]: 3.1 µg/mL
- MIC B. cereus [2]: 6.2 µg/mL
- MIC S. aureus [3]: 6.2 µg/mL
- MIC P. aeruginosa [4]: 12.5 µg/mL
- % Hemolysis at 25 μg/ml [5]: 23.6%

SMILES: CCCC[C@H](NC(=O)[C@@H](NC(=O)[C@H](CCC(=O)O)NC(=O)CNC(=O)[C@@H](NC(=O)[C@]1(C)CCCC=CCCC[C@](C)(NC(=O)[C@H](CCCCN)NC(=O)[C@H](CCCCN)NC(=O)[C@H](C)NC(=O)[C@H](CO)NC(=O)[C@H](Cc2c[nH]cn2)NC(=O)[C@H](CC(C)C)NC(=O)[C@H](Cc2ccccc2)NC(=O)[C@H](CCCCN)NC(=O)CNC(=O)[C@@H](NC(=O)CN)[C@@H](C)CC)C(=O)NCC(=O)N[C@@H](CCCCN)C(=O)N[C@@H](C)C(=O)N1)C(C)C)[C@@H](C)CC)C(=O)N[C@@H](CC(N)=O)C(=O)N[C@@H](CO)C(N)=O [Mag(i + 4)11] (H-GIGKFLHSAKK[S5]GKA[S5]VGEI[Nle]NS-NH2; staple 12-16)
- MIC E. coli [1]: 3.1 µg/mL
- MIC B. cereus [2]: 6.2 µg/mL
- MIC S. aureus [3]: 12.5 µg/mL
- MIC P. aeruginosa [4]: 6.2 µg/mL
- % Hemolysis at 25 μg/ml [5]: 17.5%

SMILES: CCCC[C@H](NC(=O)[C@@H](NC(=O)[C@H](CCC(=O)O)NC(=O)CNC(=O)[C@]1(C)CCCC=CCCC[C@](C)(NC(=O)[C@H](Cc2ccccc2)NC(=O)[C@H](CCCCN)NC(=O)[C@H](CCCCN)NC(=O)[C@H](C)NC(=O)[C@H](CO)NC(=O)[C@H](Cc2c[nH]cn2)NC(=O)[C@H](CC(C)C)NC(=O)[C@H](Cc2ccccc2)NC(=O)[C@H](CCCCN)NC(=O)CNC(=O)[C@@H](NC(=O)CN)[C@@H](C)CC)C(=O)N[C@@H](CCCCN)C(=O)N[C@@H](C)C(=O)N[C@@H](Cc2ccccc2)C(=O)N1)[C@@H](C)CC)C(=O)N[C@@H](CC(N)=O)C(=O)N[C@@H](CO)C(N)=O [Mag(i + 4)12] (H-GIGKFLHSAKKF[S5]KAF[S5]GEI[Nle]NS-NH2; staple 13-17)
- MIC E. coli [1]: 3.1 µg/mL
- MIC B. cereus [2]: 3.1 µg/mL
- MIC S. aureus [3]: 6.2 µg/mL
- MIC P. aeruginosa [4]: 3.1 µg/mL
- % Hemolysis at 25 μg/ml [5]: 76.8%
